In paper PMC12059162 (Scientific Reports, 2025):
Marks after values point to notes of the source that are not given here.

Columns and labels:
[1] = alamarBlue cell viability, cardiotoxicity; conditions: mouse, HL-1 cardiomyocytes
PANC-1 cells [2] = assay: Cell cycle analysis (PI, flow cytometry)
phospho-p53 (S15) = assay: Human Apoptosis Array in PANC-1 cells; conditions: PANC-1, 0.5 µM, 72 h
[3] = alamarBlue cell viability, healthy cells; conditions: human, NHDF cells
MIA PaCa-2 cells [4] = assay: alamarBlue cell viability; conditions: Homo sapiens, MIA PaCa-2, 72 h
pro-caspase-3 = assay: Human Apoptosis Array in PANC-1 cells; conditions: PANC-1, 0.5 µM, 72 h
EBC-1 cells = assay: alamarBlue cell viability
DR4 = assay: Human Apoptosis Array in PANC-1 cells; conditions: PANC-1, 0.5 µM, 72 h
PANC-1 cells [5] = assay: Holographic microscopy morphometry (HoloMonitor M4); format: cell-based, human; conditions: PANC-1, 25 µM, 72 h
Method: To follow the morphometric changes, a holographic transmission microscope (HoloMonitor M4; Phase Holographic Imaging AB, Lund, Sweden) was used, which uses a laser to produce 3D images of the cells[51],[52]. This […] imaging technique allows us to monitor cell morphological changes in real-time. First, the cells were seeded at a concentration of 3.5 × 10^5 cells/flask/4000 µL cell culture medium. […] At least 5 images were taken from each culture dish, taking care to assess different fields of view. These images were evaluated using the microscope software (Hstudio M4). We assessed the average area and the average optical thickness of the cells.

p53 = assay: qPCR apoptotic gene expression in PANC-1 cells; conditions: PANC-1, 25 µM, 48 h, normalised to DMSO control
phospho-p53 (S46) = assay: Human Apoptosis Array in PANC-1 cells; conditions: PANC-1, 0.5 µM, 72 h
cIAP-1 = assay: Human Apoptosis Array in PANC-1 cells; conditions: PANC-1, 0.5 µM, 72 h
PANC-1 cells [6] = assay: xCELLigence SP impedimetric cell viability
MIA PaCa-2 cells [7] = assay: Cell cycle analysis (PI, flow cytometry); conditions: MIA PaCa-2, 0.5 µM
PANC-1 cells [8] = assay: Annexin-V/7AAD early and late apoptosis flow cytometry; format: cell-based, human; conditions: PANC-1, 0.5 µM, 72 h
Method: For apoptosis measurements, Annexin-V positive/7AAD (7-Aminoactinomycin D) negative, early apoptotic and Annexin-V/ 7AAD double positive, late apoptotic cells were differentiated using a BD FACSCalibur (BD FACSCalibur, Becton-Dickinson, San Jose, CA, USA) flow cytometer[49],[50]. […] After 24, 48, and 72 h treatment, cells were harvested with 300 µL TrypLE (Sigma Ltd. St. Louis, MO, USA). Fresh cell culture medium was then added to stop the effect of TrypLE and the harvested cells were centrifuged for 5 min (300 g). Then, the supernatant was removed, and cells were resuspended in 300 µL of Annexin binding buffer (Sony Biotechnology, Weybridge, UK). For labelling, 3–3 µL of Annexin-V-FITC (Sony Biotechnology, Weybridge, UK) and 7AAD (Sony Biotechnology, Weybridge, UK) were added, followed by 10 min incubation at room temperature in the dark. For flow cytometric analysis (BD FACSCalibur, Becton–Dickinson, San Jose, CA, USA), a minimum of 10^4 cells/sample was measured. Annexin-V was detected using the FL-1 channel (530/30), and 7AAD was detected using the FL-3 channel (670 LP). In each treatment group, 3 parallel samples were analysed. The results were evaluated using Flowing Software 2.5.1 (Turku Centre of Biotechnology, Turku, Finland).

FADD = assay: Human Apoptosis Array in PANC-1 cells; conditions: PANC-1, 0.5 µM, 72 h
DR5 = assay: qPCR apoptotic gene expression in PANC-1 cells; conditions: PANC-1, 25 µM, 12 h, normalised to DMSO control
TRAIL = assay: qPCR apoptotic gene expression in PANC-1 cells; conditions: PANC-1, 25 µM, any of the time points (3-48 h)
HSP60 = assay: Human Apoptosis Array in PANC-1 cells; conditions: PANC-1, 0.5 µM, 72 h
COLO-205 cells = assay: alamarBlue cell viability; conditions: Homo sapiens, COLO 205, 72 h
A2058 cells = assay: alamarBlue cell viability; conditions: Homo sapiens, A2058, 72 h
[9] = read-out: IC50 values (μM) 72 hours
[10] = read-out: Viability (%) after 72-h treatment

For O=C1C2=C(CCN(Cc3ccccc3)C2)N2CCN=C2N1Cc1ccc(F)cc1 [TBP-134], the viability at 72 h, 0.5 µM [1] was 89.9 ± 5.2%, the viability at 72 h, 10 µM [1] was 88.4 ± 5% and the viability at 72 h, 25 µM [1] was 82 ± 2.3%. For the same molecule, the “Effect on cell cycle” value (PANC-1 cells [2]; PANC-1, 0.5 µM, 48 h) was “strong G2/M phase arrest”, the “Increase in cell number in the G2/M phase” value (PANC-1 cells [2]; PANC-1, 10 and 25 µM, 72 h) was 2.2 fold and the “phospho-p53 (S15) protein level” value (phospho-p53 (S15)) was “decrease”. The viability at 72 h, 0.5 µM [3] was 61.5 ± 0.5%, the viability at 72 h, 10 µM [3] was 46.2 ± 3.4% and the viability at 72 h, 25 µM [3] was 48.3 ± 1.2%. For the same molecule, the IC50 (MIA PaCa-2 cells [4]; [9]) was 0.67 µM, the viability at 0.5 µM (MIA PaCa-2 cells [4]; [10]) was 48.9 ± 2.9% and the viability at 10 µM (MIA PaCa-2 cells [4]; [10]) was 65 ± 4.9%. For the same molecule, the viability at 25 µM (MIA PaCa-2 cells [4]; [10]) was 59 ± 5.5%, the pro-caspase-3 protein level (pro-caspase-3) was “decrease” and the “Viability (%) after 72-h treatment” value (EBC-1 cells; EBC-1, 0.5 μM, 72 h, mean ± SD (n = 3), 0.5 µM) was 52.3 ± 1.5^z %. For the same molecule, the viability at 0.5 µM (EBC-1 cells; Homo sapiens, EBC-1, 72 h, read-out: Viability (%) after 72-h treatment, EBC-1, 0.5 μM, 72 h, mean ± SD (n = 3)) was 52.2%, the viability at 10 µM (EBC-1 cells; Homo sapiens, EBC-1, 72 h, read-out: Viability (%) after 72-h treatment, EBC-1, 10 μM, 72 h, mean ± SD (n = 3)) was 51.7 ± 0.7% and the viability at 25 µM (EBC-1 cells; Homo sapiens, EBC-1, 72 h, read-out: Viability (%) after 72-h treatment, EBC-1, 25 μM, 72 h, mean ± SD (n = 3)) was 50.5 ± 2%. The DR4 protein level (DR4) was “significant increase”, the Average cell area (PANC-1 cells [5]) was 376 µm^2 and the “Average cell area, fold decrease vs DMSO” value (PANC-1 cells [5]) was 1.7 fold. The “p53 mRNA expression” value (p53) was 3.7 fold, the “phospho-p53 (S46) protein level” value (phospho-p53 (S46)) was “decrease” and the cIAP-1 protein level (cIAP-1) was “undetectable”. It also gave an IC50 (PANC-1 cells [6]; Homo sapiens, PANC-1, 72 h, read-out: IC50 values (μM) 72 hours) of 0.35 µM, a viability at 0.5 µM (PANC-1 cells [6]; Homo sapiens, PANC-1, 72 h, read-out: Viability (%) after 72-h treatment, PANC-1, 0.5 μM, 72 h, mean ± SD (n = 3)) of 13.4% and a viability at 10 µM (PANC-1 cells [6]; Homo sapiens, PANC-1, 72 h, read-out: Viability (%) after 72-h treatment, PANC-1, 10 μM, 72 h, mean ± SD (n = 3)) of 7.4 ± 0.3%. The viability at 25 µM (PANC-1 cells [6]; Homo sapiens, PANC-1, 72 h, read-out: Viability (%) after 72-h treatment, PANC-1, 25 μM, 72 h, mean ± SD (n = 3)) was 6.1 ± 0.9%, the “Viability (%) after 72-h treatment” value (PANC-1 cells [6]; PANC-1, 0.5 μM, 72 h, mean ± SD (n = 3), 0.5 µM) was 13.2 ± 1.4^z % and the “Effect on cell cycle” value (MIA PaCa-2 cells [7]; 48 h) was “strong G2/M phase arrest”. The “subG1 phase (percentage of cells)” value (MIA PaCa-2 cells [7]; 72 h, control 5.6%) was 20.8%, the “Early apoptotic cells, fold increase” value (PANC-1 cells [8]) was 2.1 fold and the “Late apoptotic cells, fold increase” value (PANC-1 cells [8]) was 4.2 fold. For the same molecule, the “Ratio of late apoptotic cells” value (PANC-1 cells [8]; control 0.9%) was 3.8%, the “Ratio of AnnexinV+ and 7AAD- (early apoptotic) cells” value (PANC-1 cells [8]; control 21.1%) was 43.8% and the FADD protein level (FADD) was “decrease”. For the same molecule, the “DR5 mRNA expression” value (DR5) was 2.3 fold, the “TRAIL induction (mRNA)” value (TRAIL) was “not detected” and the HSP60 protein level (HSP60) was “significant increase”. For the same molecule, the IC50 (COLO-205 cells; [9]) was 0.25 µM, the viability at 0.5 µM (COLO-205 cells; [10]) was 45.5 ± 1.3% and the viability at 10 µM (COLO-205 cells; [10]) was 48.8 ± 1.6%. It also gave a viability at 25 µM (COLO-205 cells; [10]) of 54.3 ± 0.6%, an IC50 (A2058 cells; [9]) of 0.34 µM and a viability at 0.5 µM (A2058 cells; [10]) of 51.4 ± 2.4%. It also gave a viability at 10 µM (A2058 cells; [10]) of 47.7 ± 3.5% and a viability at 25 µM (A2058 cells; [10]) of 44.7 ± 2.8%.
